pIC50: −log10 of the molar value.
Biological target: T1, Ceramide glucosyltransferase (Homo sapiens, UniProt Q16739)
T1 sequence (Q16739 whole entry): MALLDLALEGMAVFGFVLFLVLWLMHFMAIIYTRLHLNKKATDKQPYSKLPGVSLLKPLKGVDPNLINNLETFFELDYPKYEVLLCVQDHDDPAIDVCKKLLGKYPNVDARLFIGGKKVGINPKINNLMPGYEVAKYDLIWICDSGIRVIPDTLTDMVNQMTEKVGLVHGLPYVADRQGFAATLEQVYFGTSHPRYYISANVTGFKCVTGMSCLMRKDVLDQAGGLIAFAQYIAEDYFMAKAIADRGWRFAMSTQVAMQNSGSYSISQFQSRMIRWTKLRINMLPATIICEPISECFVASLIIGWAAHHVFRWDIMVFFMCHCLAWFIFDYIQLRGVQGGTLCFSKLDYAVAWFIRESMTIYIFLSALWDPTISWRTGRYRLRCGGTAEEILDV
Experiment: UDP-Glo Glucosylceramide Synthase Biochemical Assay
Method: Using Promega's UDP-Glo™ Glycosyltransferase assay kit (Promega Corporation, Madison, WI, USA (Promega)), GCS activity was indirectly measured by detecting the amount of UDP produced. An aliquot of GCS enzyme (1.5 μg crude golgi preparation, total protein) and titrated test compound were aliquoted to each well and incubated for 30 minutes at room temperature. […] An equivalent volume of substrate mixture was then added to each well. Following a 20 h incubation at room temperature to allow for GCS turnover of substrate, an equal volume of UDP detection reagent (Promega) was added to each well and incubated for an additional 75 minutes at room temperature to simultaneously convert the accumulated UDP product into ATP and generate light in a luciferase reaction.

`CN1C(=O)CC(COc2nc(C3CC3)ncc2C#N)C1c1cccc(Cl)c1` (stereo unspecified) [US20250188057, Compound 101] showed a pIC50 of 5.50.
